Read-outs that look alike come from different tables or passages of the source.
How the values were obtained:
ER = target: T1, ER (Homo sapiens, UniProt P03372); assay: MVLN assay (estrogen-responsive luciferase reporter transactivation); assay type: cell-based; conditions: for MVLN assay Maximum induction (%): percentage of the maximum induction (luciferase) of tested compound to that of E2, 2 days exposure; for Luciferase activity on coexposure with OHT: OHT 10 nM coexposed with 100 μM PFHxI, 100 μM PFOI, 100 μM PFBDI, 20 μM PFHxDI or 40 μM PFODI; for MVLN assay Relative potency: footnote: ratio of EC50 of E2 to that of test compound, text: based on EC20; for MVLN assay EC20: luciferase activity, 2 days, from Hill slope and EC50
T1 construct: This cell line was stably transfected with the luciferase reporter gene and estrogen-responsive element derived from the Xenopus vitellogenin A2 gene; endogenous in cells; host or cells: MVLN cells (provided by J.P. Giesy)
T1 sequence (P03372 1-595): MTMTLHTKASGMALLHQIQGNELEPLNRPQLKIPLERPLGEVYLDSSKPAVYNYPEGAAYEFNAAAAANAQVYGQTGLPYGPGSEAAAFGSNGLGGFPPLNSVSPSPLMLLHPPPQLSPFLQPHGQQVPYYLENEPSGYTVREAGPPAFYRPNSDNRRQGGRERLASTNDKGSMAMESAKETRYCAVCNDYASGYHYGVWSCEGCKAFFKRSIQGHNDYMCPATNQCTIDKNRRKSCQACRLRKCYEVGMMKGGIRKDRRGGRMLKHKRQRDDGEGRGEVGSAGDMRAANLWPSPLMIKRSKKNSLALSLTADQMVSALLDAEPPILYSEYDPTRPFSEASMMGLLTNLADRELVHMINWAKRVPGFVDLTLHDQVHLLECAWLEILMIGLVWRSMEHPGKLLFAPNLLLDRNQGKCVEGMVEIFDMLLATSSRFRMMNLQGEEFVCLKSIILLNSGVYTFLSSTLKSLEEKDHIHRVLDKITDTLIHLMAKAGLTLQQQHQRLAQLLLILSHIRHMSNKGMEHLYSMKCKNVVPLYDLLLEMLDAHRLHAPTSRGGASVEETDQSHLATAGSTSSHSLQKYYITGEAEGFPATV
Experimental: (§1) Cell culture. Human MCF-7BUS breast adenocarcinoma cells and MVLN cells were cultured in 100-mm culture dishes in a humidified atmosphere of 5% CO2 at 37°C. Cells were maintained in Dulbecco’s modified Eagle’s medium (DMEM)/F-12 (Hyclone, Logan, UT, USA) containing 10% fetal bovine serum, 100 U/mL streptomycin-penicillin, 2 mM L-glutamine, and 1% insulin-transferrin-selenium supplement (all from Gibco, Grand Island, NY, USA).
MVLN assay. The MVLN cell line was kindly provided by J.P. Giesy (Michigan State University, East Lansing, MI, USA). This cell line was stably transfected with the luciferase reporter gene and estrogen-responsive element derived from the Xenopus vitellogenin A2 gene. […] Cells were seeded in the interior 60 wells of a 96-well ViewPlate (Packard Instrument Company, Boston, MA, USA) at a density of 7 × 10^4 cells/well, starved in SF medium for 48 hr, and exposed to test compounds for 2 days. […] Luciferase activity was measured with the LucLite kit (Packard Instruments) according to the manufacturer’s protocol. We measured luminescence by microplate reader (Varioskan Flash) and integrated the luminescence signal for 10 sec. Total protein content was measured by the Bradford assay (Tiangen, Beijing, China) to normalize luminescent units. The results are given as relative luminescent unit per microgram protein. The maximal induction of positive control (corrected for solvent control, 0.1–0.2% ethanol) was set as 100%, and the responses of other chemicals were converted to a percentage of the maximum level. Three replicates were used in each experiment. The cytotoxicity of tested chemicals was examined by WST-1 kit in parallel and routinely observed under microscope to identify the exposure concentration range.
(§2) The concentration–response analyses were performed with four-parameter logistic curve regression analysis according to the following formula:
(§3) y = minimum + (maximum – minimum) ÷ [1 + (x/EC50)^Hill slope], [1]
(§4) where y is the response value, x is the log concentration of the test compound, and EC50 is the concentration that induces half of the maximum proliferation effect or luciferase activity.
EC50 values were calculated from this nonlinear regression model. EC20 were calculated as
ECx = [x/(100 – x)]^(1/Hill slope) × EC50, [2]

MCF-7BUS cells = assay: E-screen assay (MCF-7BUS cell proliferation, WST-1); assay type: cell-based, Human; conditions: for E-screen Maximum induction (%): percentage of the maximum proliferation effect of tested compound to that of E2, 6 days exposure; for EC50: Homo sapiens, MCF7/BUS, 144 h, read-out: E-screen EC50; for E-screen Relative potency: ratio of EC50 of E2 to that of test compound
Experimental: as §1
E-screen assay. MCF-7BUS cells were kindly provided by A.M. Soto and C. Sonnenschein (Tufts University School of Medicine, Boston, MA, USA). In response to ERα agonists, the mitotic effect leads to the proliferation of MCF-7BUS cells. […] Cells were trypsinized and plated into the interior 60 wells of 96-well plates at the density of 3,000 cells/well. Before each experiment, cells were starved in steroid-free (SF) medium for 48 hr to minimize the basal hormonal activity during assays. SF medium consisted of phenol red–free DMEM/F-12 (Hyclone) supplemented with 5% dextran-charcoal-treated fetal bovine serum (Hyclone), 100 U/mL streptomycin-penicillin, and 2 mM L-glutamine. […] We used a WST-1 proliferation kit (Roche Diagnostics, Mannheim, Germany) to assess proliferation after 6 days of exposure according to the kit instructions. The WST-1 assay is based on the enzymatic cleavage of the tetrazolium salt WST-1 to formazan by cellular mitochondrial dehydrogenases present in viable cells. The absorbance of the WST-1 solution was detected by a microplate reader (Varioskan Flash, Thermo Fisher Scientific, Waltham, MA, USA) at 450 nm, with the reference wave length at 690 nm. The cell proliferation effect was calculated from the solvent control (0.1% ethanol)-corrected absorbance and expressed as the percentage of maximal absorbance of the positive control. Three replicates were used in each experiment.
as §2, §3, §4
EC50 values were calculated from this nonlinear regression model. EC20 were calculated as […]

EGR3 = assay: Expression of estrogen-responsive gene EGR3 (quantitative RT-PCR); assay type: cell-based, Human; conditions: MCF-7 cells, 48 hr, vs 0.1% ethanol; 50 μM PFBI, PFHxI, PFOI, PFBDI, PFOA, PFOC, PFOB, 1-iodohexane, 4:2 FTI, 6:2 FTI; 40 μM PFDI, PFDoI, PFODI, 8:2 FTI, 10:2 FTI; 20 μM PFHxDI; 100 pM E2
Experimental: RNA isolation and reverse transcription polymerase chain reaction (RT-PCR). MCF-7BUS cells were seeded in six-well plates at the density of 1.0 × 10^6 cells per well, starved in SF medium for 48 hr, and exposed to test compounds for 48 hr. First, cells were rinsed twice with cold phosphate-buffered saline, and total RNA was isolated using Trizol reagent (Invitrogen Inc., Carlsbad, CA, USA) following the manufacturer’s protocol. The 260 nm and 280 nm absorbance reading of total RNA was performed using a Nanodrop spectrophotometer (Thermo Scientific, Waltham, MA, USA). The concentration of RNA was quantified by the reading at 260 nm.
We used a two-step quantitative RT-PCR to quantify gene expression. Total RNA was converted to cDNA using M-MLV (Moloney murine leukemia virus) reverse transcriptase (Promega, Madison, WI, USA) with oligo dT(15), following the manufacturer’s instructions. The final cDNA solution was diluted five times with DNase/RNase-free water (Gibco). Quantitative PCR was performed with a Stratagene MX3005 thermal cycler (Stratagene, La Jolla, CA, USA). PCR reaction mixtures (25 μL) contained 12.5 μL GoTaq Green Master Mix (Promega), 2 μL diluted cDNA, and 0.2 μM sense/antisense primers. The thermal cycle was 5 min at 95°C, followed by 45 cycles of 15 sec at 95°C, 30 sec at 55°C, and 30 sec at 72°C. The primer sequences of early growth response protein 3 (EGR3) were derived from [Terasaka et al. (2004)]. We designed the primers of internal gene β-actin and trefoil factor 1 (TFF1; pS2) with Primer Premier 5 software (Premier Biosoft International, Palo Alto, CA, USA). The primer sequences were as follows: for β-actin (NM_001101), 5´-CACTCT[…]TCCTTCC-3´ (forward) and 5´-[…][…]-3´ (reverse); for EGR3 (NM_004430), 5´-CCATGATTC[…]-3´ (forward) and 5´-GTGGATCTGCTTGTCTTTGAATG-3´ (reverse); and for TFF1 (NM_003225), 5´-AGAAGCG […]-3´ (forward) and 5´-[…][…]-3´ (reverse). The quantification of target gene expression was based on a comparative cycle threshold (Ct) value. We normalized the expression level of each target gene to its reference gene β-actin. The fold change of the target genes was analyzed by the 2^−ΔΔCt method ([Livak and Schmittgen 2001]). We used melting curve analysis and agarose gel electrophoresis to verify the correct PCR products.

[1] = within the tested concentration ranges

| SMILES | MVLN assay Maximum induction (%) (ER) | E-screen Maximum induction (%) (MCF-7BUS cells) | EC50 (MCF-7BUS cells; MCF-7BUS proliferation, 6 days) | EC50 (ER) | Luciferase activity on coexposure with OHT (ER) | MVLN assay Relative potency (ER) | MVLN assay EC20 (ER) | EC50 (MCF-7BUS cells) | E-screen Relative potency (MCF-7BUS cells) | EGR3 mRNA expression, fold up-regulation (EGR3) | Luciferase induction / estrogenic effect in the MVLN assay (in words) (ER; [1]) | Proliferation / estrogenic effect in the E-screen assay (in words) (MCF-7BUS cells; [1]) |
| --- | --- | --- | --- | --- | --- | --- | --- | --- | --- | --- | --- | --- |
| FC(F)(F)C(F)(F)C(F)(F)C(F)(F)CCI [4:2 FTI, 1H,1H,2H,2H-perfluorohexyl iodide] | NDe (The maximum relative luciferase activity was < 5%) | NDd (The maximum relative proliferation effect was < 7%) |  |  |  |  |  |  |  |  |  |  |
| FC(F)(F)C(F)(F)C(F)(F)C(F)(F)C(F)(F)C(F)(F)CCI [6:2 FTI, 1H,1H,2H,2H-perfluorooctyl iodide] | NDe (The maximum relative luciferase activity was < 5%) | NDd (The maximum relative proliferation effect was < 7%) |  |  |  |  |  |  |  |  |  |  |
| FC(F)(F)C(F)(F)C(F)(F)C(F)(F)C(F)(F)C(F)(F)C(F)(F)C(F)(F)CCI [8:2 FTI, 1H,1H,2H,2H-perfluorodecyl iodide] | NDe (The maximum relative luciferase activity was < 5%) | NDd (The maximum relative proliferation effect was < 7%) |  |  |  |  |  |  |  |  |  |  |
| FC(F)(F)C(F)(F)C(F)(F)C(F)(F)C(F)(F)C(F)(F)C(F)(F)C(F)(F)C(F)(F)C(F)(F)CCI [10:2 FTI, 1H,1H,2H,2H-perfluorododecyl iodide] | NDe (The maximum relative luciferase activity was < 5%) | NDd (The maximum relative proliferation effect was < 7%) |  |  |  |  |  |  |  |  |  |  |
| C[C@]12CC[C@@H]3c4ccc(O)cc4CC[C@H]3[C@@H]1CC[C@@H]2O [E2, 17β-estradiol, reference compound] |  | 100% | 0.00312 nM |  |  |  |  |  |  |  |  |  |
| FC(F)(I)C(F)(F)C(F)(F)C(F)(F)I [PFBDI, Octafluoro-1,4-diiodobutane] | 21% | 97% |  | 29600 nM | marked reduction of luciferase activity | 0.3 × 10^–6 | 13800 nM | 1450 nM | 2.2 × 10^–6 | 2.4 fold |  |  |
| FC(F)(I)C(F)(F)C(F)(F)C(F)(F)C(F)(F)C(F)(F)I [PFHxDI, Dodecafluoro-1,6-diiodohexane] | 73% | 100% |  | 1130 nM | marked reduction of luciferase activity | 1.1 × 10^–5 | 380 nM | 7.5 nM | 4.2 × 10^–4 | 9.1 fold |  |  |
| FC(F)(F)C(F)(F)C(F)(F)C(F)(F)C(F)(F)C(F)(F)I [PFHxI, 1-iodoperfluorohexane] | 47% | 99% |  | 26700 nM | marked reduction of luciferase activity | 0.29 × 10^–6 | 14100 nM | 630 nM | 4.9 × 10^–6 | 2.4 fold | induced luciferase activity in a dose-related manner | produced full concentration–response curves |
| FC(F)(I)C(F)(F)C(F)(F)C(F)(F)C(F)(F)C(F)(F)C(F)(F)C(F)(F)I [PFODI, Hexadecafluoro-1,8-diiodooctane] | 38% | 105% |  | 2870 nM | marked reduction of luciferase activity | 3.8 × 10^–6 | 1070 nM | 43.3 nM | 7.2 × 10^–5 | 11.2 fold |  |  |
